Here are results for four compounds from publication PMC3665241, “Scaffold-Focused Virtual Screening: Prospective Application to the Discovery of TTK Inhibitors” (Journal of Chemical Information and Modeling, 2013).

The target in assay [1] is T1, GST-tagged recombinant human full-length TTK protein kinase (Homo sapiens, UniProt P33981).
T1 construct: GST-tagged recombinant human full-length TTK protein kinase; purchased Invitrogen (Life Technologies Ltd., Paisley, U.K.)
T1 sequence (P33981 1-857): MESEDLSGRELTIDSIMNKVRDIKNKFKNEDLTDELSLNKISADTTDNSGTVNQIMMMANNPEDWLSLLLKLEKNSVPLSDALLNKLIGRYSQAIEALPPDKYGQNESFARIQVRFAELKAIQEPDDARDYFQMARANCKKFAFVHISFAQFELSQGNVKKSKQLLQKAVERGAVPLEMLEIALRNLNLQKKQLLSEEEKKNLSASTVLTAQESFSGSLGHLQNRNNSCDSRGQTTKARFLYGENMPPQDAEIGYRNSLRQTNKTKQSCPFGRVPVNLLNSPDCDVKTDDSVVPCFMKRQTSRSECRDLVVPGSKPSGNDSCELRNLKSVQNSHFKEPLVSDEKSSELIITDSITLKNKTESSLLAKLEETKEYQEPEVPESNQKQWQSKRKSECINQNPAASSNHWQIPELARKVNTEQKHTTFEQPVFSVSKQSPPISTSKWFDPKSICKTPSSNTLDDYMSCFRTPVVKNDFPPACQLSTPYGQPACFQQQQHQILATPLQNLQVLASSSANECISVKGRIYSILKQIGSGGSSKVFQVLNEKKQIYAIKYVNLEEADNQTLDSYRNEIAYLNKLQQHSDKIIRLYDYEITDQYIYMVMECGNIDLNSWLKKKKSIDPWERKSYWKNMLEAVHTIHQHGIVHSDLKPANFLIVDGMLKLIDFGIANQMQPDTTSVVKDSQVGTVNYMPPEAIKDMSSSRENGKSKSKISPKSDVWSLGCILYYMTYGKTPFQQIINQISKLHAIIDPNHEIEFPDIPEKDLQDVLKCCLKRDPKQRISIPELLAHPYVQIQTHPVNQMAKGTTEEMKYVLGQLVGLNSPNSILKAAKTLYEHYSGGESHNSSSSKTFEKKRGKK
Kind of assay: TTK mobility shift microfluidics assay, single-concentration percent inhibition screen. The format is biochemical. Particulars: 12.5 nM TTK, 10 μM ATP, mean of duplicate ± SD; for inhibition at 40 µM: compound at 40 μM, 1% DMSO; for inhibition at 400 µM: compound at 400 μM (fragment-like, MW < 300 Da). Here is the method: The TTK kinase activity was measured in a mobility shift microfluidics assay with the Caliper LabChip EZReader II (Caliper Life Sciences, Hopkinton, MA, U.S.A.). For the initial percent inhibition compound screen, all compounds were tested at 40 μM, and fragment-like compounds (MW < 300 Da) were also tested at 400 μM. A 2.14 μM stock of GST-tagged recombinant human full-length TTK protein kinase from Invitrogen (Invitrogen, Life Technologies Ltd., Paisley, U.K.) and custom synthesized peptide from Pepceuticals (Pepceuticals Ltd., Enderby, U.K.) with sequence 5-FAM-[…]-amide were used. […] For every 10 mL of stock buffer, one Roche EDTA free complete mini-protease inhibitor cocktail tablet (Roche, Basel, Switzerland) was added. TTK was used at a final concentration of 12.5 nM. The assay plate was sealed and incubated at room temperature for 60 min. The assay was stopped by addition of stop buffer which contained 100 mM HEPES (pH 7.3), 20 mM EDTA, and 0.05% (v/v) Brij-35. The assay plate was then analyzed using the EZReader II. Z′ for compounds at 40 μM was 0.48, and Z′ for compounds at 400 μM was 0.61.

Assay [2] addresses T1, GST-tagged recombinant human full-length TTK protein kinase. Kind of assay: TTK mobility shift microfluidics assay, IC50 determination (3 nM TTK). Type of assay: biochemical. Particulars: for IC50: 3 nM TTK, 10 μM ATP, duplicate on the same plate; for LE (ligand efficiency): from TTK IC50.
Assay [3] addresses T2, TTK kinase domain (residues 519–808) (Homo sapiens, UniProt P33981).
T2 construct: TTK kinase domain (residues 519–808); inferred from Ni-NTA purification with imidazole elution; made in house; host or cells: E. coli BL21 AI
T2 sequence (P33981 519-808): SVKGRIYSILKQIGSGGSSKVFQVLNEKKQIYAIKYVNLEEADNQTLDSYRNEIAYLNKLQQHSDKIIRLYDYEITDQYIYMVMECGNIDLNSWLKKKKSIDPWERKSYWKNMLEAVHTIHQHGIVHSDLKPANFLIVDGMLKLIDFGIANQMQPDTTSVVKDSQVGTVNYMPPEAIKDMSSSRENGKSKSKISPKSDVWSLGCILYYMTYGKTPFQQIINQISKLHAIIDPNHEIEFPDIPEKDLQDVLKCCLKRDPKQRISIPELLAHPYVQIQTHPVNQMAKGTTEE
Kind of assay: Soaking of apo TTK kinase domain crystals with inhibitor, X-ray crystallography. The format is binding. Particulars: crystals soaked with 10–50 mM compound for 24 h. The text has this:
In recognition of the desirability of protein–ligand crystal structures to educate the efficient follow-up of fragment-like hit matter and our wish to determine the mode of binding of hits identified with the scaffold-focused virtual screen, we sought co-crystal structures of confirmed hits with TTK. To this end, apo crystals of TTK kinase domain were soaked in buffer solution containing the respective inhibitor (2–9). X-ray data were collected for all crystals, and the structures were solved using molecular replacement. We successfully obtained co-crystal structures of TTK with fragment-like hit compounds 3, 4, 5, and 7. […] A summary of crystallographic analysis is presented in Table 4, and the binding modes of compounds 3, 4, 5, and 7 are illustrated in Figure 7 with Fo–Fc electron density omit maps surrounding the ligand shown in green wire-mesh contoured at 3σ. In all four structures, the activation loop of TTK is disordered, possibly due to the presence of a PEG molecule bound to Lys553, a residue which would usually coordinate with Glu571 to help stabilize the activation loop (Lys553 is not shown in Figure 7 for clarity).
TTK was purified and crystallized as described previously.[26] Plasmids for expression of TTK were received from Stefan Knapp, Structural Genomics Consortium, Oxford, U.K. TTK kinase domain (residues 519–808) was expressed in E. coli BL21 AI competent cells (Invitrogen, Life Technologies Ltd., Paisley, U.K.). Cells were cultured in LB media containing kanamycin selection antibiotic and induced with 0.5 mM IPTG and 1g/L L-arabinose at an OD280 of 0.7. Cells were then incubated overnight at 18 °C with shaking at 225 rpm. Cells were harvested and resuspended in lysis buffer containing 50 mM HEPES pH 7.5, 500 mM NaCl, 10 mM imidazole, 5% (v/v) glycerol, lysozyme, and 1 Roche EDTA free complete protease inhibitor cocktail tablet (Roche, Basel, Switzerland) per 3 L of buffer. TTK was purified using Ni–NTA nickel affinity resin and washed in buffer containing 30 mM imidazole. TTK was then eluted from the resin with 250 mM imidazole. Eluate was concentrated using a Vivaspin concentrator with a 30 kDa molecular weight cutoff (GE Healthcare, Chalfont St. Giles, U.K.) and further purified on gel filtration column Superdex 200 16/60 (GE Healthcare, Chalfont St. Giles, U.K.) equilibrated in buffer containing 10 mM HEPES pH 7.5, 150 mM NaCl, 5 mM DTT, and 5 mM EDTA. The sample was concentrated to a final concentration of 8.9 mg/mL, snap frozen on dry ice, and stored at −80 °C until required.
Purified TTK was crystallized at 18 °C using the sitting drop vapor diffusion method with drops composed of 2 μL protein (8.9 mg/mL) and 2 μL reservoir solution placed over 200 μL reservoir solution of H2O/PEG300 (30–45% (v/v)) in 48 well plates. […]

Each structure is given as a SMILES string.

What is called inhibition is the percentage by which the read-out fell short of the control. A word on the IC50: it is the point on the concentration scale where inhibition reaches its midpoint. Regarding `c1ccc(-c2nc3cnccc3[nH]2)nc1` [Compound 6], in assay [1], the inhibition at 40 µM worked out at 21.5 ± 2.12% and the inhibition at 400 µM turned out to be 66%. Besides, the IC50 in assay [2] (1% DMSO) is 91.5 µM. In assay [2], the “LE (ligand efficiency)” value is 0.37. Besides, the “binding in ATP binding site of soaked TTK crystals (electron density)” value (“binding in ATP binding site” below) in assay [3] is recorded as “not bound”.

In the case of `Nc1nnc2c([nH]c3ccccc32)c1-c1ccccc1` [Compound 2], in assay [1], the inhibition at 40 µM stood at 52 ± 1.41% and the inhibition at 400 µM worked out at 56 ± 1.41%. Further, the half-maximal inhibitory concentration (IC50) in assay [2] (1% DMSO) turned out to be 53 µM. Also, the “LE (ligand efficiency)” value in assay [2] was 0.29. Besides, the “binding in ATP binding site” value in assay [3] is “not bound”.

With `Cc1ccc2[nH]c3c(N4CCCCC4)ncnc3c2c1` [Compound 9], in assay [1], the inhibition at 40 µM amounted to 68 ± 1.41% and the inhibition at 400 µM amounted to 55.5 ± 2.12%. Moreover, the IC50 in assay [2] (10% DMSO (asterisk)) came to 246 µM. Further, in assay [2], the “LE (ligand efficiency)” value came to 0.25. Moreover, in assay [3], the “binding in ATP binding site” value is on record as “not bound”.

Regarding `COc1ccc2c(c1)[nH]c1c(C)nccc12` [Compound 8, harmine], in assay [1], the inhibition at 40 µM turned out to be 19% and the inhibition at 400 µM was 65 ± 1.41%. Further, in assay [2] (1% DMSO), the IC50 was 160 µM. In addition, the “LE (ligand efficiency)” value in assay [2] was 0.32. Further, the “binding in ATP binding site” value in assay [3] is “not bound”.
